The results in this text go back to paper PMC10978029 (Virulence, 2024).

The target of test [1] is STM0435 (Salmonella enterica, UniProt Q8ZRC9, D138H/R137H/R33H). As to the kind of experiment: biochemical.
The target in test [2] is STM0435 (Salmonella enterica, UniProt Q8ZRC9, R33H). Briefly: biochemical.
In test [3] the target is T1, STM0435 (Salmonella enterica, UniProt Q8ZRC9).
T1 sequence (Q8ZRC9 1-163): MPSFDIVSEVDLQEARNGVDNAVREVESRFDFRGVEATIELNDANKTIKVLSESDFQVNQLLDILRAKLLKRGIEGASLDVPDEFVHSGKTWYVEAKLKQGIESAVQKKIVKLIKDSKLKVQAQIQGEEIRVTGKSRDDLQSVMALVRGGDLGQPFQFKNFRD
As to the kind of experiment: SPR. The class given is binding.

Test [4] deals with STM0435 (Salmonella enterica, UniProt Q8ZRC9, D138H/R137H). As to the kind of experiment: biochemical.

SMILES strings stand for the structures.

Regarding `Nc1nc2c(ncn2[C@@H]2O[C@@H]3CO[P@](=O)(O)O[C@H]4[C@@H](O)[C@H](n5cnc6c(=O)[nH]c(N)nc65)O[C@@H]4CO[P@](=O)(O)O[C@H]3[C@H]2O)c(=O)[nH]1` [c-di-GMP], the Kd at STM0435 [1] was found to be 33.2 µM; on STM0435 [2] it was 15.2 µM; at STM0435 [3], 8.38 µM; at STM0435 [4], 25.3 µM.

A word on the Kd: it is the free concentration of one partner at which half of the binding sites on the other are occupied at equilibrium, for simple one-to-one binding. A lower Kd goes with higher affinity.
